Data on 6 compounds can be found in patent US9546139B2, “Pyridine carboxylic acid based compound used as a P2X1 and P2X3 receptor antagonist, a production method for the same and a composition comprising the same” (GWANGJU INSTITUTE OF SCIENCE AND TECHNOLOGY, priority 2010, dated 2017).

The test system of one experiment is P2 receptor. The conditions noted are these: conventional antagonist, stated shortcoming; cited from earlier work.
For the next experiment, the target named is T1, mouse P2X1 receptor (Mus musculus, UniProt P51576).
T1 construct: EST clones containing full-length cDNAs of mouse P2X1 (clone ID: 4189541) and human P2X7 receptor (clone ID: 5286944); host or cells: Xenopus oocytes (cRNA injected)
T1 sequence (P51576 1-399): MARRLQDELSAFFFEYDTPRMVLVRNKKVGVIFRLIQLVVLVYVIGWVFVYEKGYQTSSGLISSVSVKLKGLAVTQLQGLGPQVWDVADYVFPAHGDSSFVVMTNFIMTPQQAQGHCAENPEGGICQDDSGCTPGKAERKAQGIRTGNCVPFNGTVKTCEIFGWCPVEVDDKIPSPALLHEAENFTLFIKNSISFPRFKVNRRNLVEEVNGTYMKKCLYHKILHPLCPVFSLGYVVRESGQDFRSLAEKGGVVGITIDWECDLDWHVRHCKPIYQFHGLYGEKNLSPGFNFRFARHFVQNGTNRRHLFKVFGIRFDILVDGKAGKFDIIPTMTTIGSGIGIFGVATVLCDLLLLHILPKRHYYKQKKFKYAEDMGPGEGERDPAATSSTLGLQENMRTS
The experiment can be described thus: Two-electrode voltage clamp, ATP-induced ion current in Xenopus oocytes expressing mouse P2X1. It is filed as cell-based. The conditions noted are these: Table 2; 10 μM compound; ion current induced by 2 μM ATP; mean ± SEM, n = 4; read-out: % inhibition mP2X1. As to the method:
1-1. Antagonistic Activity at Recombinant Mouse P2X1 and Human P2X3 Receptors
(§1) Xenopus oocytes were harvested and prepared with method as previously described in publications. Defolliculated oocytes were injected cytosolically with mouse P2X1 and human P2X3 receptor cRNA ([…], 1 μg/mL), respectively, incubated for 24 hrs at 18° C. in Barth's solution and kept for up to 12 days at 4° C. until used in electrophysiological experiments. ATP-activated membrane currents (Vh=−70 mV) were recorded from cRNA-injected oocytes using the twin-electrode voltage-clamp technique (Axoclamp 2B amplifier). Voltage recording (1-2 MΩ tip resistance) and current-recording microelectrodes (5 MΩ tip resistance) were filled with 3.0 M KCl. Oocytes were held in an electrophysiological chamber and superfused with Ringer's solution (5 mL/min, at 18° C.) containing (mM) NaCl, 110; KCl, 2.5; HEPES, 5; BaCl2, 1.8, adjusted to pH 7.5. ATP was superfused over the oocytes for 60-120s then washed out for a period of 20 min. For inhibition curves, data were normalized to the current evoked by ATP, at pH 7.5. Test substances were added for 20 min prior to ATP exposure; all peptides were tested for reversibility of their effects. The concentration required to inhibit the ATP response by 50% (IC50) was taken from Hill plots constructed using the formula: log(I/Imax−1), where I is the current evoked by ATP in the presence of an antagonist. Data are presented as mean±SEM (n=4) for the data from different batches of oocytes.
For orientation: Two-electrode voltage clamp holds a large cell at a set potential and records current.

The target in the next experiment is T2, human P2X3 receptor (Homo sapiens, UniProt P56373).
T2 construct: expressed in transfected cells; host or cells: Xenopus oocytes (cRNA injected); cDNA from the Max-Planck Institute laboratory (Dr. W. Stuhmer and Dr. F. Soto)
T2 sequence (P56373 1-397): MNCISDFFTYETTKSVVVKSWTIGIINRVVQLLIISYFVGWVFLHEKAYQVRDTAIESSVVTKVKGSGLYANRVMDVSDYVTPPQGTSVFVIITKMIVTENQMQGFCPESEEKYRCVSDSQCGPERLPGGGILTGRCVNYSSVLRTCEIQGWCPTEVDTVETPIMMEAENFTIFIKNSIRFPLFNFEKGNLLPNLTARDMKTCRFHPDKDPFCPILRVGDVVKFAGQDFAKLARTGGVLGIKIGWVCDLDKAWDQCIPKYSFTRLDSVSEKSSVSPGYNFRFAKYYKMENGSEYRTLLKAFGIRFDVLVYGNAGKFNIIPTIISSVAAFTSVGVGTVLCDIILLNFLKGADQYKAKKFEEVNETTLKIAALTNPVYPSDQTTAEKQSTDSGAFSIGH
The experiment is described as follows: Two-electrode voltage clamp, ATP-induced ion current in Xenopus oocytes expressing human P2X3. The experiment is classed as cell-based. The conditions noted are these: Table 2; 10 μM compound; ion current induced by 2 μM ATP; mean ± SEM, n = 4; read-out: % inhibition hP2X3. The protocol: Antagonistic Activity at Recombinant Mouse P2X1 and Human P2X3 Receptors
as §1

A further experiment has as its target T3, human P2X7 receptor (Homo sapiens, UniProt Q99572).
T3 construct: EST clones containing full-length cDNAs of mouse P2X1 (clone ID: 4189541) and human P2X7 receptor (clone ID: 5286944); host or cells: HEK293
T3 sequence (Q99572 1-595): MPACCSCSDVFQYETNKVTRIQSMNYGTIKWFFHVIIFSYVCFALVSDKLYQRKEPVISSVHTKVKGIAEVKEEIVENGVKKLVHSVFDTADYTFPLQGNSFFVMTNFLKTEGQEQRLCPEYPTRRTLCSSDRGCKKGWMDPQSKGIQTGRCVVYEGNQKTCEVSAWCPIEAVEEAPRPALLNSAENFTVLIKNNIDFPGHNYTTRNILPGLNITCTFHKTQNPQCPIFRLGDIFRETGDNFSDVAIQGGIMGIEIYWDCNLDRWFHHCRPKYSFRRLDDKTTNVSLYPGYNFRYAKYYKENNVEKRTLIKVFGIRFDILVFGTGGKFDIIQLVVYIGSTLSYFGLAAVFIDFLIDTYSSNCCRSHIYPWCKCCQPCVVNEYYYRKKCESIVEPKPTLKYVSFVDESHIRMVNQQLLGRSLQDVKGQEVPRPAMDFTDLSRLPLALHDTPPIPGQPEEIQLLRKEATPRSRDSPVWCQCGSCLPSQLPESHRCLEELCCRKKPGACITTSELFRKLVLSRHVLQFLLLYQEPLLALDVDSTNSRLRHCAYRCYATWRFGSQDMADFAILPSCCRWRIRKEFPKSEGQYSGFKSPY
The experiment can be described thus: Ethidium+ accumulation assay in human P2X7-expressing HEK293 cells. It is filed as cell-based. The conditions noted are these: 10 μM compound, ethidium+ accumulation induced by 6 μM BzATP, n = 3. As to the method:
1-2. Ethidium^+ Accumulation Assay at Human P2X7 Receptors
Human P2X7-expressing HEK293 cells were grown as monolayer culture at 37° C. in a humidified atmosphere of 5% CO2, DMEM supplemented with 10% fetal bovine serum. Cells were harvested with treatment of Trypsin/EDTA solution, collected by centrifugation (200 g for 5 min).
The cells were resuspended at 2.5×10^6 cells/mL in assay buffers, consisting of (in mM) HEPES 10, KCl 140, glucose 5, EDTA 1 (pH 7.4), and then ethidium bromide (100 μM) was added. Cell suspensions were added to 96 well plates containing the P2X7 receptor agonist, ATP or BzATP, at 2×10^5 cells/wells. Plates were incubated at 37° C. for 120 min and cellular accumulation of ethidium^+ was determined by measuring fluorescence with Bio-Tek instrument FL600 fluorescent plate reader (excitation wavelength of 530 nm and emission wavelength of 590 nm). When the effects of antagonists, such as PPADS, KN62, and test peptides were studied, antagonists were treated together with agonist without pre-incubation.

Turning to `Cc1nc(N=Nc2ccc(S(=O)(=O)O)cc2S(=O)(=O)O)c(COP(=O)(O)O)c(C=O)c1O` [PPADS, pyridoxalphosphate-6-azophenyl-2′,4′-disulphonic acid], the “reversibility of blocking activity” value with P2 receptor is listed as “irreversible blocking activity”.
Usually inhibition stands for the drop in the measured response relative to a control, in per cent. In the case of `Cc1nc(Cc2ccccc2)c(C(=O)O)c(C(=O)O)c1O` [Compound 35, 2-Benzyl-5-hydroxy-6-methyl-pyridine-3,4-dicarboxylic acid], the values for the inhibition at 10 µM on mouse P2X1 receptor and on human P2X3 receptor were 54.2 ± 10.6% and 31.4 ± 6.2%, respectively. Moreover, the “% inhibition hP2X7” value on human P2X7 receptor was “inactive”.
On to `CC(=O)c1c(O)c(C)nc(CCc2ccccc2)c1C(=O)O` [Compound 45, 4-acetyl-5-hydroxy-6-methyl-2-phenethylnicotinic acid], for which the values for the inhibition at 10 µM at mouse P2X1 receptor and on human P2X3 receptor were 47.9 ± 8.1% and 37.3 ± 10%, respectively. The “% inhibition hP2X7” value on human P2X7 receptor was “inactive”.
As for `COc1cccc(/C=C/c2nc(C)c(O)c(C(C)=O)c2C(=O)O)c1` [Compound 48, (E)-4-acetyl-5-hydroxy-2-(3-methoxystyryl)-6-methylnicotinic acid], the inhibition at 10 µM at mouse P2X1 receptor is 29.9 ± 5.7%; at human P2X3 receptor, 15.8 ± 9%. Further, on human P2X7 receptor, the “% inhibition hP2X7” value was “inactive”.
For the compound `CC(=O)c1c(O)c(C)nc(/C=C/c2ccccc2)c1C(=O)O` [Compound 47, (E)-4-acetyl-5-hydroxy-6-methyl-2-styrylnicotinic acid], the inhibition at 10 µM came out at 40.4 ± 1.3% at mouse P2X1 receptor and 27.4 ± 5.5% on human P2X3 receptor. Also, the “% inhibition hP2X7” value at human P2X7 receptor is “inactive”.
On the same counts, the results for `COc1ccc(CCc2nc(C)c(O)c(C=O)c2CCC(=O)O)cc1` [Compound 61, 3-(4-formyl-5-hydroxy-2-(4-methoxyphenethyl)-6-methylpyridin-3-yl)propanoic acid] are 50.9 ± 6.1%, 70.5 ± 4.7% and “inactive”.
